The record followed here is patent US11446298B2, “Pyrimidine derivatives” (Idorsia Pharmaceuticals Ltd, priority 2017, dated 2022).

What all share (type): cell-based
For one experiment, the target named is T1, PTGER2 (EP2) (Homo sapiens, UniProt P43116).
T1 construct: host or cells: HEK 293 (PathHunter, stably transfected)
Kind of experiment: hEP2 b-Arrestin Assay (PathHunter HEK 293 PTGER2 b-arrestin cells, PGE2 5 μM). As to conditions: antagonistic activity, beta-arrestin assay, HEK 293 PTGER2 cells, PGE2 5 μM (EC80); read-out: hEP2 b-arr IC50. The procedure: The antagonistic activities of the compounds of formula (I) on the EP2 and EP4 receptors are also determined in accordance with the following experimental method.
The assay is using the PathHunter™ HEK 293 PTGER2 and PTGER4 b-arrestin cell lines from DiscoverX. The system is based on the Enzyme Fragment Complementation Technology. Two complementing fragments of the b-galactosidase enzyme are expressed within stably transfected cells. The larger portion of b-gal, termed EA for Enzyme Acceptor, is fused to the C-terminus of b-arrestin 2. The smaller fragment, termed ProLink™ tag, is fused to PTGER2 (EP2) or PTRGER4 (EP4) at the C-terminus. Upon activation, b-arrestin is recruited which forces the interaction of ProLink and EA, allowing complementation of the two fragments of b-gal and the formation of a functional enzyme which is capable of hydrolysing the substrate and generating a chemiluminescent signal.
The HEK 293 PTGER2 b-arrestin cells (DiscoverX 93-021-4C1) are detached from culture dishes with a cell dissociation buffer (Invitrogen, 13151-014), and collected in growing medium (GM: DMEM+Glutamax-I (Invitrogen 32430)/10% FCS, 1% Penicilin/streptomycin). 5000 cells per well of a 384 well plate (white with white bottom Greiner 781080) are seeded in 20 μl per well of GM. Plate is incubated at 37° C., 5% CO2 for 24 hours.
Stock solutions of test compounds are made at a concentration of 10 mM in DMSO, and serially diluted in DMSO to concentrations required for inhibition dose response curves (tested concentration range 10 μM-2 nM or 1 μM-0.2 nM).
PGE2 (Cayman 14010, stock solution: 10 mM in DMSO) is used as agonist at 5 μM final concentration, corresponding to EC80.
Five microliters of diluted compounds are transferred into the assay plate. Plate is pre-incubated 15 minutes at 37° C. Then five microliters of PGE2 (final conc. 5 μM) are transferred into the assay plate. Plate is incubated 120 minutes at 37° C.
PathHunter Glo Detection Kit components are thawed and mix according to manufacturer's instructions: 1 part Galacton Star Substrate with 5 parts Emerald II™ Solution, and 19 parts of PathHunter Cell Assay Buffer, respectively. Twelve μl of reagent are transferred to the assay plate and incubate for 1 hour at room temperature in the dark. Luminescence counts are read on a BMG Fluostar Optima reader according to manufacturer's instructions.
For each compound concentration calculate of the percentage of activity compared to DMSO control value as average ±STDEV. (each concentration is measured in duplicate)
IC50 values and curves are generated with XLfit software (IDBS) using Dose-Response One Site model 203. When compounds were measured multiple times, mean values are given.

For another experiment, the target named is T2, EP2 (Homo sapiens, UniProt P43116).
T2 construct: SF295 glioblastoma cells express high endogenous EP2 and no EP4; host or cells: SF295 glioblastoma cells
T2 sequence (P43116 whole entry): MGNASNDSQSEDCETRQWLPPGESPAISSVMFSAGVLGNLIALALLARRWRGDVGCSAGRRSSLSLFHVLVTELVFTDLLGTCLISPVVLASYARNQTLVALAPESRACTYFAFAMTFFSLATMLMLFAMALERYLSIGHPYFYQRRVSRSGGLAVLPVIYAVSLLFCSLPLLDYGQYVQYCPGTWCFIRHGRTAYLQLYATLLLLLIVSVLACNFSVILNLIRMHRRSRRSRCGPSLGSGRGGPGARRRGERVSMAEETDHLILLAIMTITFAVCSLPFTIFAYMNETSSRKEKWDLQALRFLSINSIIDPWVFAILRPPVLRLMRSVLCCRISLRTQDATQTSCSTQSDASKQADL
Nature of the experiment: hEP2 cAMP Assay (SF295 glioblastoma cells, HTRF cAMP, PGE2 75 nM). As to conditions: antagonistic activity, PGE2 75 nM (EC80). The essentials: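 IC50 values derive from duplicate-point curves of percent cAMP relative to DMSO, read by HTRF (665/620 nm) against a cAMP calibrator. Compounds (30 μM to 0.01 nM ranges) were given 45 min at room temperature before 30 min with 75 nM PGE2, in EP2-only SF295 cells with 2 mM IBMX.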
A general note: Time-resolved FRET reads energy transfer from a long-lived donor to a nearby acceptor.

For a further experiment, the target named is T3, EP4 (Homo sapiens, UniProt P35408).
T3 construct: BT549 breast cancer cells, express high endogenous EP4 levels and very low EP2 levels; host or cells: BT549 breast cancer cells
T3 sequence (P35408 whole entry): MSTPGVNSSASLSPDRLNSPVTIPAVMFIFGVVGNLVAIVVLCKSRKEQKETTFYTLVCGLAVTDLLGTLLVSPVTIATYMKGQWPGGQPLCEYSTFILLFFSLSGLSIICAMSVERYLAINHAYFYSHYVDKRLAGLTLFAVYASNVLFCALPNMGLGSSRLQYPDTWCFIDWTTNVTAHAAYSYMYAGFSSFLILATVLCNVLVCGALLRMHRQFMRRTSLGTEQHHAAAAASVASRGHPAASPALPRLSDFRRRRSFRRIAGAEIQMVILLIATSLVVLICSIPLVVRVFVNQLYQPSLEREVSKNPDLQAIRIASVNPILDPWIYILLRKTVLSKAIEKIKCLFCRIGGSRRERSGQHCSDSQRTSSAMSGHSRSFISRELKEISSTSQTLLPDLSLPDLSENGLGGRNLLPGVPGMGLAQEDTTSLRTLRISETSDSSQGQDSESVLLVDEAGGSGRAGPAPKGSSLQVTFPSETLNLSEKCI
Nature of the experiment: hEP4 cAMP Assay (BT549 breast cancer cells, HTRF cAMP, PGE2 6 nM). The conditions noted are these: antagonistic activity, PGE2 6 nM (EC80). The essentials:
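Antagonism is measured as inhibition of PGE2 (6 nM final, EC80) cAMP accumulation in EP4-expressing BT549 breast cancer cells, after a 45 min room-temperature compound pre-incubation and 30 min agonist step, with 2 mM IBMX present. HTRF ratio gives cAMP relative to DMSO; IC50 fitted, means over repeat runs.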

pIC50: −log10 of the molar value.

T1 sequence (P43116 whole entry): as the sequence (P43116 whole entry) above

A word on the pIC50: it is the negative decadic logarithm of the IC50, by convention in mol/L. `CCOc1cc(-c2cc(NCCc3c(OC)ccc4ncccc34)ncn2)sc1C(=N)NO` [Example 146, 3-Ethoxy-N-hydroxy-5-{6-[2-(6-methoxy-quinolin-5-yl)-ethylamino]-pyrimidin-4-yl}-thiophene-2-carboxamidine]: the values for the pIC50 on PTGER2 (EP2), at EP2 and at EP4 were 7.18, 6.92 and 6.39, respectively.
The corresponding values for `CCOc1cc(-c2cc(NCCc3cccc4cc(C)[nH]c34)ncn2)sc1C(=O)O` [Example 37, 3-Ethoxy-5-{6-[2-(2-methyl-1H-indol-7-yl)-ethylamino]-pyrimidin-4-yl}-thiophene-2-carboxylic acid] are 6.90, 7.28 and 6.22.
With `CCOc1cc(-c2cc(NCCc3c(C)ccc4ccccc34)ncn2)ccc1OCC(=O)O` [Example 48, (2-Ethoxy-4-{6-[2-(2-methyl-naphthalen-1-yl)-ethylamino]-pyrimidin-4-yl}-phenoxy)-acetic acid], the pIC50 at PTGER2 (EP2) was 7.66; on EP2 it was 6.83; against EP4, 6.14.
Take `O=C(O)c1ccc(-c2cc(NCCc3cccc4sccc34)ncn2)cc1OC1CCC1` [Example 107, 4-[6-(2-Benzo[b]thiophen-4-yl-ethylamino)-pyrimidin-4-yl]-2-cyclobutoxy-benzoic acid]: the pIC50 at PTGER2 (EP2) was 6.83; against EP2, 6.60; against EP4, 6.57.
The corresponding values for `CCOc1cc(-c2cc(NCCc3c(C)ccc4c3cnn4C)ncn2)ccc1O` [Example 111, 4-{6-[2-(1,5-Dimethyl-1H-indazol-4-yl)-ethylamino]-pyrimidin-4-yl}-2-ethoxy-phenol] are 7.30, 6.77 and 6.07.
The corresponding values for `CCOc1cc(-c2cc(NCCc3c(OC)ccc4ncccc34)ncn2)ccc1NCC(=O)O` [Example 88, (2-Ethoxy-4-{6-[2-(6-methoxy-quinolin-5-yl)-ethylamino]-pyrimidin-4-yl}-phenylamino)-acetic acid] are 7.03, 6.81 and 6.19.
Taken in the same sequence, the figures for `CCOc1cc(-c2cc(NCCc3c(OC)ccc4ccccc34)ncn2)sc1CC(=O)O` [Example 132, (3-Ethoxy-5-{6-[2-(2-methoxy-naphthalen-1-yl)-ethylamino]-pyrimidin-4-yl}-thiophen-2-yl)-acetic acid] were 7.21, 7.31 and 6.42.
In the case of `CCOc1cc(-c2cc(NCCc3c(C)ccc4cnccc34)ncn2)ccc1OCC(=O)O` [Example 86, (2-Ethoxy-4-{6-[2-(6-methyl-isoquinolin-5-yl)-ethylamino]-pyrimidin-4-yl}-phenoxy)-acetic acid], the pIC50 at PTGER2 (EP2) was 6.75; against EP2, 7.11; against EP4, 6.17.
Taken in the same sequence, the figures for `O=C(O)c1ccc(-c2cc(NCCc3cccc4ccsc34)ncn2)cc1OC1CCC1` [Example 102, 4-[6-(2-Benzo[b]thiophen-7-yl-ethylamino)-pyrimidin-4-yl]-2-cyclobutoxy-benzoic acid] were 6.84, 6.65 and 6.58.
Taken in the same sequence, the figures for `CCOc1cc(-c2cc(NCCc3c(C(F)F)ccc4ccccc34)ncn2)sc1C(=O)O` [Example 70, 5-{6-[2-(2-Difluoromethyl-naphthalen-1-yl)-ethylamino]-pyrimidin-4-yl}-3-ethoxy-thiophene-2-carboxylic acid] were 7.11, 6.79 and 6.43.
For the compound `COc1ccc2c(C)ccnc2c1CCNc1cc(-c2ccc(C(=O)O)c(OC3CCC3)c2)ncn1` [Example 87, 2-Cyclobutoxy-4-{6-[2-(7-methoxy-4-methyl-quinolin-8-yl)-ethylamino]-pyrimidin-4-(C)yl}-benzoic acid], the pIC50 at PTGER2 (EP2) was 7.15; against EP2, 6.99; against EP4 it was 6.07.
Taken in the same sequence, the figures for `COc1ccc2ncccc2c1CCNc1cc(-c2ccc(C(=O)O)c(OC3CCC3)c2)ncn1` [Example 64, 2-Cyclobutoxy-4-{6-[2-(6-methoxy-quinolin-5-yl)-ethylamino]-pyrimidin-4-yl}-benzoic acid] were 6.97, 7.10 and 6.06.
For the compound `CCOc1cc(-c2cc(NCCc3c(OC)ccc4ccccc34)ncn2)ccc1C(=O)O` [Example 3, 2-Ethoxy-4-{6-[2-(2-methoxy-naphthalen-1-yl)-ethylamino]-pyrimidin-4-yl}-benzoic acid], the pIC50 was 7.77 on PTGER2 (EP2), 7.96 on EP2 and 6.53 against EP4.
The corresponding values for `Cc1ccc2c(cnn2C)c1CCNc1cc(-c2ccc3ccncc3c2)ncn1` [Example 115, [2-(1,5-Dimethyl-1H-indazol-4-yl)-ethyl]-(6-isoquinolin-7-yl-pyrimidin-4-yl)-amine] are 6.61, 7.02 and 6.31.
The corresponding values for `O=C(O)c1ccc(-c2cc(NCCc3ccc(Cl)c4ccccc34)ncn2)cc1OC1CCC1` [Example 61, 4-{6-[2-(4-Chloro-naphthalen-1-yl)-ethylamino]-pyrimidin-4-yl}-2-cyclobutoxy-benzoic acid] are 6.95, 6.74 and 6.13.
Taken in the same sequence, the figures for `COc1ccc2ncccc2c1CCNc1cc(-c2ccc(-c3nnc(N)s3)cc2)ncn1` [Example 113, {6-[4-(5-Amino-[1,3,4]thiadiazol-2-yl)-phenyl]-pyrimidin-4-yl}-[2-(6-methoxy-quiolin-5-yl)-ethyl]-amine] were 7.33, 7.57 and 6.34.
As to `CCOc1cc(-c2cc(NCCc3c(OC)ccc4ncccc34)ncn2)ccc1OCC(=O)O` [Example 66, (2-Ethoxy-4-{6-[2-(6-methoxy-quinolin-5-yl)-ethylamino]-pyrimidin-4-yl}-phenoxy)-acetic acid], the pIC50 at PTGER2 (EP2) is 6.46; against EP2, 6.64; on EP4 it was 6.15.
The corresponding values for `CCCc1cc(-c2cc(NCCc3c(OC)ccc4ccccc34)ncn2)cc(F)c1C(=O)O` [Example 123, 2-Fluoro-4-{6-[2-(2-methoxy-naphthalen-1-yl)-ethylamino]-pyrimidin-4-yl}-6-propyl-benzoic acid] are 7.51, 7.54 and 6.26.
The corresponding values for `O=C(O)c1ccc(-c2cc(NCCc3ccc(F)c4ccccc34)ncn2)cc1OC1CCC1` [Example 20, 2-Cyclobutoxy-4-{6-[2-(4-fluoro-naphthalen-1-yl)-ethylamino]-pyrimidin-4-yl}-benzoic acid] are 7.14, 6.70 and 6.17.
The corresponding values for `COc1ccc2ncccc2c1CCNc1cc(-c2ccc(-c3cc(O)no3)cc2)ncn1` [Example 83, 5-(4-{6-[2-(6-Methoxy-quinolin-5-yl)-ethylamino]-pyrimidin-4-yl}-phenyl)-isoxazol-3-ol] are 6.92, 7.05 and 6.37.
As to `Cc1ccc2cnccc2c1CCNc1cc(-c2ccc(C(=O)O)c(OC3CCC3)c2)ncn1` [Example 84, 2-Cyclobutoxy-4-{6-[2-(6-methyl-isoquinolin-5-yl)-ethylamino]-pyrimidin-4-yl}-benzoic acid], the pIC50 is 6.83 at PTGER2 (EP2), 6.75 at EP2 and 6.00 against EP4.
